Source: patent US20060275520A1, “White peony extract for improving the duration and quality of sleep” (Access Business Group International LLC, priority 2005, published 2006)

Molecular target: GABA-A receptors
Assay: GABA-A Agonist binding assay (NovaScreen), [3H]-GABA displacement
Parameters: species or system bovine
Conditions: converted from μg/ml; read-out: IC50 for paeoniflorin converted to molarity
Protocol: These GABA-A Agonist assays were conducted by NovaScreen Biosciences Corporation (Hanover, Md.) and are described in Falch E., et al., 1986. […] 47(3): 898-903 and Enna S. J., et al., 1977.
(§1) In particular, the GABA-A Agonist binding assays use bovine cerebellar membranes as the source of GABA-A receptors. GABA-A, radio labeled with tritium (^3H), is used as both the reference compound and positive control.
The bovine cerebellar membranes are exposed to both [^3H]-GABA and extracts of the desired test substance. In this instance, the bovine cerebellar membranes were exposed to: six extracts of white peony root at concentrations of 0.01, 0.03, 0.1, 0.3, 1, 3, and 10 μg/ml. The GABA-A Agonist assay measures how much radio labeled GABA-A binds to the GABA-A receptors present in the bovine cerebellar membranes.
The results of the GABA-A Agonist binding assays are shown in FIGS. 19-24 and are expressed below in Table I as IC50 in μg/ml.
as §1, with “control. The bovine cerebellar membranes are exposed to both [^3H]-GABA and extracts of the desired test substance. […]” for “control.”

`C[C@@]12C[C@@]3(O)O[C@@H](O1)[C@]1(COC(=O)c4ccccc4)[C@H]3C[C@@]12O[C@@H]1O[C@H](CO)[C@@H](O)[C@H](O)[C@H]1O` [paeoniflorin] gave an IC50 of ~625 nM.
